Key:
c-kit mutant D816V = c-kit mutant D816V (Homo sapiens (Human), UniProt P10721, D816V/DEL694-753); assay: c-Kit mutant D816V biochemical assay (AlphaScreen kinase activity)
How it was run: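 AlphaScreen with streptavidin donor and PY30 acceptor beads read phosphotyrosine on biotin-(E4Y)10 substrate (30 nM). Enzyme: E. coli-expressed N-His c-Kit D816V, residues 551-934 lacking kinase insert 694-753. Reaction 30 min at room temperature, 10 μM ATP, 5% DMSO; IC50 fitted over 8 three-fold dilutions.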

[1] = test system: BaF3-FL KIT D816V or BaF3-FL KIT V560G/D816V cell line; assay: Cell-based assays of c-Kit mutant kinase activity (cell proliferation, ATPlite); conditions: at least one of the c-kit cell assays of Example 7
How it was run: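 BaF3 cells dependent on transfected full-length human KIT D816V or V560G/D816V (pCI-Neo, CMV promoter) were seeded at 1×10^4 cells/well and exposed to 8-point 1:3 dilutions from 10 μM top (0.2% DMSO) for three days at 37° C. ATPlite luminescence gave cell number; IC50 from concentration-response.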

c-kit mutant D816V, sequence (P10721 other isoform, or with tags, fused parts or gaps D816V/del 694-753): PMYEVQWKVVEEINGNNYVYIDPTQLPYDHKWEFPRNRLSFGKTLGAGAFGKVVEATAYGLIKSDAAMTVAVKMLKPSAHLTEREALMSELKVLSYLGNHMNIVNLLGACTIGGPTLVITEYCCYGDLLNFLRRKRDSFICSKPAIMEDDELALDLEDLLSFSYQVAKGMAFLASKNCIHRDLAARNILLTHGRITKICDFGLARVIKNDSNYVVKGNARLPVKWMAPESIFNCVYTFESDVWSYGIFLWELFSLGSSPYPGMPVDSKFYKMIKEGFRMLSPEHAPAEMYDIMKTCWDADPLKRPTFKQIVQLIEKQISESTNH

| Compound | IC50 (c-kit mutant D816V) [µM] | IC50 [1] [µM] |
| --- | --- | --- |
| Cc1nc(C2CCN(c3ncnc4[nH]c(-c5ccc(F)cc5)cc34)CC2)[nH]c1-c1ccc(F)cc1 [P-3006, 6-(4-fluorophenyl)-4-[4-[5-(4-fluorophenyl)-4-methyl-1H-imidazol-2-yl]-1-piperidyl]-7H-pyrrolo[2,3-d]pyrimidine] | 0.0001 to 1 | < 10 |
| Cc1ccc(-c2[nH]c(C3CCN(c4ncnc5[nH]c(-c6ccc(C#N)cc6)cc45)CC3)nc2C)cc1 [P-3089, 4-[4-[4-[4-methyl-5-(p-tolyl)-1H-imidazol-2-yl]-1-piperidyl]-7H-pyrrolo[2,3-d]pyrimidin-6-yl]benzonitrile] | 0.0001 to 1 | < 10 |
| Cc1ccc(-c2[nH]c(C3CCN(c4ncnc5[nH]c(-c6ccc(C#N)cc6)cc45)CC3)nc2C)s1 [P-3090, 4-[4-[4-[4-methyl-5-(5-methyl-2-thienyl)-1H-imidazol-2-yl]-1-piperidyl]-7H-pyrrolo[2,3-d]pyrimidin-6-yl]benzonitrile] | 0.0001 to 1 | < 10 |
| COc1cc(-c2cc3c(N4CCC(c5nc(C)c(-c6ccc(OC(C)C)cc6)[nH]5)CC4)ncnc3[nH]2)ccn1 [P-3091, 4-[4-[5-(4-isopropoxyphenyl)-4-methyl-1H-imidazol-2-yl]-1-piperidyl]-6-(2-methoxy-4-pyridyl)-7H-pyrrolo[2,3-d]pyrimidine] | 0.0001 to 1 | < 10 |
| Cc1nc(C2CCN(c3ncnc4[nH]c(-c5ccc(F)cc5)cc34)CC2)[nH]c1-c1ccc(OC(C)C)cc1 [P-3092, 6-(4-fluorophenyl)-4-[4-[5-(4-isopropoxyphenyl)-4-methyl-1H-imidazol-2-yl]-1-piperidyl]-7H-pyrrolo[2,3-d]pyrimidine] | 0.0001 to 1 | < 10 |
| Cc1nc(C2CCN(c3ncnc4[nH]c(-c5ccc(C#N)cc5)cc34)CC2)[nH]c1-c1ccc(OC(C)C)cc1 [P-3093, 4-[4-[4-[5-(4-isopropoxyphenyl)-4-methyl-1H-imidazol-2-yl]-1-piperidyl]-7H-pyrrolo[2,3-d]pyrimidin-6-yl]benzonitrile] | 0.0001 to 1 | < 10 |
| CCOc1cc(-c2[nH]c(C3CCN(c4ncnc5[nH]c(-c6ccc(F)cc6)cc45)CC3)nc2C)ccc1C [P-3094, 4-[4-[5-(3-ethoxy-4-methyl-phenyl)-4-methyl-1H-imidazol-2-yl]-1-piperidyl]-6-(4-fluorophenyl)-7H-pyrrolo[2,3-d]pyrimidine] | 0.0001 to 1 | < 10 |

— patent US9771369B2, “Compounds and methods for kinase modulation, and indications therefor” (Plexxikon Inc., priority 2014, dated 2017)
